The values below come from PMC8927846 (Materials Today Bio, 2022).

The subject of data set [1] is hiPS-BMEC (human iPS-derived BMEC-like cells) monolayer. In words: Transwell permeability across hiPS-BMEC monolayer. The data set is classed as in vitro ADME. As to conditions: cys-T7 versus cys-Tfr-T12 peptide.
Data set [2] deals with transferrin receptor (TfR). As to conditions: read-out: Dissociation constant Kd to TfR; cited from earlier work.
Data set [3] has as its system hiPS-BMEC. The data set can be described thus: Confocal imaging of uptake and colocalization in hiPS-BMEC. The data set is classed as cell-based, human. The note with it: 125 nM AF 488-Tf, 1250 nM unlabeled Tf, 1 h, 37 °C.
The subject of data set [4] is HBEC. The data set can be described thus: Confocal imaging of uptake in HBEC. The data set is classed as cell-based, human. The note with it: 125 nM AF 488-Tf, 1250 nM unlabeled Tf, 1 h, 37 °C.

pKd: −log10 of the molar value.

With CHAIYPRH [cys-T7 peptide], the “Permeability compared between the two peptides” value in data set [1] was “higher permeability”. For orientation: pKd means the Kd on a negative log10 scale, so that one unit is a factor of ten. Consider “Tf: unlabeled transferrin, the native ligand of TfR”, for which, in data set [2], the pKd is 8.55. Consider THRPPMWSPVWP [Tfr-T12 peptide], for which the pKd in data set [2] was 7.82.

On to HAIYPRH [T7 peptide], for which the pKd in data set [2] is 8.00. Turning to “AF 488-Tf: Alexa Fluor 488 labeled transferrin”, the “Internalization on co-incubation with 10-fold excess of unlabeled Tf” value in data set [3] and in data set [4] was “reduced internalization” throughout.
